How the values were obtained:
[1] = Partition coefficient (logP); type: physicochemical; conditions: octanol/water
[2] = Dissociation constant with retinol binding protein was determined

logP [1] | Kd [2] [nM] | SMILES
6.31 | 90 | CCNC(=O)/C=C(C)/C=C/C=C(C)/C=C/C1=C(C)CCCC1(C)C
8.15 | – | C/C=C(C)/C=C/C=C(C)/C=C/C1=C(C)CCCC1(C)C
– | 170 | CC1=C(/C=C/C(C)=C/C=C/C(C)=C/C(=O)Nc2ccc(O)cc2)C(C)(C)CCC1 [FENRETINIDE]
6.16 | 70 | CC1=C(/C=C/C(C)=C/C=C/C(C)=C/CO)C(C)(C)CCC1 [RETINOL]

Source: ChEMBL document CHEMBL1132732, “HINT predictive analysis of binding between retinol binding protein and hydrophobic ligands” (Bioorg Med Chem Lett, 2000)
